According to publication PMC7433010, “Exploration of multi‐target effects of 3‐benzoyl‐5‐hydroxychromen‐2‐one in Alzheimer’s disease cell and mouse models” (Aging Cell, 2020):

Legend:
GCLC = test: Western blot of GCLC in ∆K280 TauRD‐DsRed SH‐SY5Y cells; type: cell-based, human; details: 1 µM; induced untreated 78%, uninduced 100%
Method: (§1) Total proteins from ∆K280 TauRD-DsRed SH-SY5Y cells were obtained using a RIPA buffer containing 50 mM Tris-HCl (pH8.0), 150 mM NaCl, 2 mM EDTA (pH8.0), 50 mM NaF, 0.1% SDS, 0.5% sodium deoxycholate, 1% NP40, and a protease inhibitor cocktail (Sigma-Aldrich). After sonication and sitting on ice for 20 min, the lysates were centrifuged at 14,000 × g for 30 min at 4°C. Protein concentrations were determined using a protein assay kit (Bio-Rad, Hercules, CA, USA), with albumin as a standard. Total proteins (20 µg) were electrophoresed on 10% or 12% SDS-polyacrylamide gel and transferred onto polyvinylidene difluoride (PVDF) membranes (Sigma-Aldrich) through reverse electrophoresis. […] Subsequently, immune complexes were detected using a horseradish peroxidase-conjugated goat anti-mouse or goat anti-rabbit IgG antibody (1:5000; GeneTex, Irvive, CA, USA) and a chemiluminescent substrate (Millipore).

BCL2 = test: Western blot of BCL2 in ∆K280 TauRD‐DsRed SH‐SY5Y cells; type: cell-based, human; details: 1 µM; induced untreated 83%, uninduced 100%
Method: as §1

BAX = test: Western blot of BAX in ∆K280 TauRD‐DsRed SH‐SY5Y cells; type: cell-based, human; details: induced untreated 120%, uninduced 100%
Method: as §1

AKT = test: Western blot of AKT in ∆K280 TauRD‐DsRed SH‐SY5Y cells; type: cell-based, human
Method: as §1
(§2) Figure S4. ΔK280 TauRD-DsRed SH-SY5Y cells. […] On day 9, neurite outgrowth and caspase 3 activity were measured. In addition, expression of HSPB1, NRF2, and CREB pathways were assessed. (b) Relative AKT, pAKT, ERK, and pERK protein levels analyzed through immunoblotting. […]

pAKT (S473) = test: Western blot of pAKT (S473) in ∆K280 TauRD‐DsRed SH‐SY5Y cells; type: cell-based, human; details: induced untreated 84%, uninduced 100%
Method: as §1, §2

pERK1/2 (T202/Y204) = test: Western blot of pERK1/2 (T202/Y204) in ∆K280 TauRD‐DsRed SH‐SY5Y cells; type: cell-based, human; details: induced untreated 90%, uninduced 100%
Method: as §1, §2

[1] = Body weight in STZ‐treated 3 × Tg‐AD mice; type: in vivo, mouse; details: 40 mg/kg i.p.; among the three groups
Method: For the in vivo LM‐031 treatment experiments, 6‐month‐old male homozygous 3 × Tg‐AD mice (n = 10 per group) were used. Mice were randomly divided into three groups: – streptozocin (STZ), STZ, and STZ/LM‐031. STZ‐induced hyperglycemia was used to accelerate the development of AD phenotype. Mouse body weight and blood glucose level were measured on days 1, 8, 15, 22, and 29. LM‐031 (40 mg/kg) or vehicle (DMSO:Cremophor EL:0.9% saline = 1:2:7) was intraperitoneally injected every day for 22 days from days 15 to 36. All animal procedures were ethically approved by the Institutional Animal Care and Use Committee of National Taiwan Normal University, Taipei, Taiwan (Permit Number: 103002) and were conducted in compliance with the ARRIVE (Animal Research: Reporting In Vivo Experiments) guidelines. Open‐field task, Y‐maze task, Morris water maze task, and immunohistochemistry and image analysis were performed.
Mice harboring APPSwe, PS1M146V, and […] transgenes (3×Tg-AD) (Oddo et al., 2003) were purchased from the Jackson Laboratory (004807; Bar Harbor, ME, USA). […] Mouse body weight was measured and blood glucose level was measured on days 1, 8, 15, 22, and 29 using a blood glucose meter (Bioland Technology, Taipei, Taiwan). […]

NRF2 = test: Western blot of NRF2 in hippocampus of STZ‐treated 3 × Tg‐AD mice; type: in vivo, mouse; details: STZ 53%, – STZ 100%
Method: (§3) In addition, isolated hippocampal and cortex tissues from transgenic mice (as described in Animal studies) were homogenized and extracted proteins (10 µg) were separated and blotted. After being blocked, the membranes were probed with antibody against mouse NRF2 (1:500; Sigma-Aldrich), CREB (1:500; Millipore), pCREB (S133) (1:1000; Millipore), or GAPDH (1:1000; MDBio), and the immune complexes detected as described above.
(§4) Mice harboring APPSwe, PS1M146V, and […] transgenes (3×Tg-AD) (Oddo et al., 2003) were purchased from the Jackson Laboratory (004807; Bar Harbor, ME, USA). Six-month-old male homozygous 3×Tg-AD mice were group housed at 20–25°C and 60% relative humidity under a daily 12-h light/12-h dark cycle, with assess to food and water ad libitum. Mice were randomly divided into 3 groups: – streptozocin (STZ), STZ, and STZ/LM-031 (n = 10 per group). STZ-induced hyperglycemia was used to accelerate the development of AD phenotype (Chen et al., 2014). Briefly, the mice were fasted for 12 h each day prior to intraperitoneal (i.p.) injection of STZ ([…]; Sigma-Aldrich) or vehicle (0.1 M sodium citrate pH4.5) for 4 times (days 2, 3, 9, and 10) (Chen et al., 2019). Mouse body weight was measured and blood glucose level was measured on days 1, 8, 15, 22, and 29 using a blood glucose meter (Bioland Technology, Taipei, Taiwan). […]

CREB = test: Western blot of CREB in hippocampus of STZ‐treated 3 × Tg‐AD mice; type: in vivo, mouse; details: among the three groups
Method: as §3, §4

Structure (SMILES): O=C(c1ccccc1)c1cc2c(O)cccc2oc1=O [LM‐031, 3‐benzoyl‐5‐hydroxychromen‐2‐one]
- GCLC protein level (GCLC): 120%
- BCL2 protein level (BCL2): 106%
- BAX expression (BAX): 76%
- AKT level (AKT): not notably affected
- pAKT (S473) expression level (pAKT (S473)): 113%
- pERK1/2 (T202/Y204) expression level (pERK1/2 (T202/Y204)): 117%
- body weight [1]: No significant change
- NRF2 level in hippocampus (NRF2): 92%
- relative total CREB level in hippocampus (CREB): not significantly different
